# In patent publication US20140120083A1, “TREATMENT OF CANCERS USING PI3 KINASE ISOFORM MODULATORS” (INFINITY PHARMACEUTICALS, INC., priority 2012, published 2014):
# Key:
# Format in all cases: biochemical
# [1] = target: PI3K δ (Homo sapiens, UniProt O00329); experiment: In vitro IC50, PI3K δ; parameters: purchased Upstate
# Description: (§1) An exemplary system is PI 3-Kinase (human) HTRF™ Assay from Upstate.
# [2] = target: T1, PI3K γ (Homo sapiens, UniProt P48736); experiment: In vitro IC50, PI3K γ
# T1 construct: purchased Sigma
# Description: as §1
# [3] = target: PI3K β (Homo sapiens, UniProt P42338); experiment: In vitro IC50, PI3K β
# Description: as §1
# [4] = target: T2, PI3K α (Homo sapiens, UniProt P42336); experiment: In vitro IC50, PI3K α
# T2 construct: purchased Upstate
# Description: as §1
# T1 sequence (P48736 whole entry): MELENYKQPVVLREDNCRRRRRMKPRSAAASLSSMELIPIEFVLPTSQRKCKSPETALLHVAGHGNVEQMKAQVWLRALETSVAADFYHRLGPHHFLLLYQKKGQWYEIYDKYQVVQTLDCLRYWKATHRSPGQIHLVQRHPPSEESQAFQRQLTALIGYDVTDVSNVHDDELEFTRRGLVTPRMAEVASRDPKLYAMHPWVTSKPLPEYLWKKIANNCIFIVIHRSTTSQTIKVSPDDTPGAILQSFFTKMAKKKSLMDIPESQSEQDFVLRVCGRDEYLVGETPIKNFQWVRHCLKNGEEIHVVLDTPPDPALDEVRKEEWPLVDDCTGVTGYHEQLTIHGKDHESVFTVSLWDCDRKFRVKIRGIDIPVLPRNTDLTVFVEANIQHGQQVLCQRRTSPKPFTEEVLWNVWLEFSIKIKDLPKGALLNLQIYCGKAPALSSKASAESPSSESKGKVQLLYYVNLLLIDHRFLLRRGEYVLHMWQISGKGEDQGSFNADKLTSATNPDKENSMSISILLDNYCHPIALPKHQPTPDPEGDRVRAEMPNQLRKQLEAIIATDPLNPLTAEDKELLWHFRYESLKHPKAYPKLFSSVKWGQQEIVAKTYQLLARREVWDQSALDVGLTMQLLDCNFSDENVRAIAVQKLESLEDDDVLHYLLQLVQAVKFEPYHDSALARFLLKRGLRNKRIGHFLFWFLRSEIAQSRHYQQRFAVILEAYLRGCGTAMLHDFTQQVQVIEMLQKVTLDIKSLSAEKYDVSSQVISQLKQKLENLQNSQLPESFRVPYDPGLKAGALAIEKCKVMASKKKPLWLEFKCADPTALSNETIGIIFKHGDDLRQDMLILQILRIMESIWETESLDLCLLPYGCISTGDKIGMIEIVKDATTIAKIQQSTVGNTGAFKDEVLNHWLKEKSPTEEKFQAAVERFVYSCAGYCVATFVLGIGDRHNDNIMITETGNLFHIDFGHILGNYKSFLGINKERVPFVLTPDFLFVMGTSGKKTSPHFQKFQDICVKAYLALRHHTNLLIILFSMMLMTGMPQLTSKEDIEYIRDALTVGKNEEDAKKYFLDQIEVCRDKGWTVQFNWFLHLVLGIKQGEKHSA
# Sequence of PI3K δ (O00329 whole entry): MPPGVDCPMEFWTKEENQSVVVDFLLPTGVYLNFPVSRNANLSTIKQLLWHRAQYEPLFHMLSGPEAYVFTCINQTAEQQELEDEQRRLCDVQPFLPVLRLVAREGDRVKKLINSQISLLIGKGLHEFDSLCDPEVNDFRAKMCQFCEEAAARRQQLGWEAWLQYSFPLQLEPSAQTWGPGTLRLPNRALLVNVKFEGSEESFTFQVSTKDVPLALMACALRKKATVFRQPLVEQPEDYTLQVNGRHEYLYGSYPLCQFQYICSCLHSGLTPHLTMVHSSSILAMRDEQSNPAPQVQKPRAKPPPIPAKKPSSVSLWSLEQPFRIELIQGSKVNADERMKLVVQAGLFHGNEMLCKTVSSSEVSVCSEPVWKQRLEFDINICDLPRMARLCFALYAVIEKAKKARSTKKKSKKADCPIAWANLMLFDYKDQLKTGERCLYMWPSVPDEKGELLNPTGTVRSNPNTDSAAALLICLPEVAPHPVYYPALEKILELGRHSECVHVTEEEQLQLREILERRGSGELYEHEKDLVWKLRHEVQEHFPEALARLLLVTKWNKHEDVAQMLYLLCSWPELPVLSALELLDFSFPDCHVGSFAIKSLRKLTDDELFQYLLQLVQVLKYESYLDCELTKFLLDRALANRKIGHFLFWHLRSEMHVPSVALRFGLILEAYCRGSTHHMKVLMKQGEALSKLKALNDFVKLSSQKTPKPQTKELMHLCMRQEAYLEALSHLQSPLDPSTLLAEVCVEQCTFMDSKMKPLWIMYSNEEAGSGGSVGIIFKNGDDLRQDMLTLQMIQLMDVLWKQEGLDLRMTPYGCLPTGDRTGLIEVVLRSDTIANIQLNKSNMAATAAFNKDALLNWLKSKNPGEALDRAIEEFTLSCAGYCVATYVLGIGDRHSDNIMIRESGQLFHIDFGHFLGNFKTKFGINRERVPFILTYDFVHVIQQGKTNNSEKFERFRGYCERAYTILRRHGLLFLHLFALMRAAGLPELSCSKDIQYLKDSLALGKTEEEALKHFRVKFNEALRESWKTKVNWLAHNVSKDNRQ
# Sequence of PI3K δ (P27986 whole entry partner): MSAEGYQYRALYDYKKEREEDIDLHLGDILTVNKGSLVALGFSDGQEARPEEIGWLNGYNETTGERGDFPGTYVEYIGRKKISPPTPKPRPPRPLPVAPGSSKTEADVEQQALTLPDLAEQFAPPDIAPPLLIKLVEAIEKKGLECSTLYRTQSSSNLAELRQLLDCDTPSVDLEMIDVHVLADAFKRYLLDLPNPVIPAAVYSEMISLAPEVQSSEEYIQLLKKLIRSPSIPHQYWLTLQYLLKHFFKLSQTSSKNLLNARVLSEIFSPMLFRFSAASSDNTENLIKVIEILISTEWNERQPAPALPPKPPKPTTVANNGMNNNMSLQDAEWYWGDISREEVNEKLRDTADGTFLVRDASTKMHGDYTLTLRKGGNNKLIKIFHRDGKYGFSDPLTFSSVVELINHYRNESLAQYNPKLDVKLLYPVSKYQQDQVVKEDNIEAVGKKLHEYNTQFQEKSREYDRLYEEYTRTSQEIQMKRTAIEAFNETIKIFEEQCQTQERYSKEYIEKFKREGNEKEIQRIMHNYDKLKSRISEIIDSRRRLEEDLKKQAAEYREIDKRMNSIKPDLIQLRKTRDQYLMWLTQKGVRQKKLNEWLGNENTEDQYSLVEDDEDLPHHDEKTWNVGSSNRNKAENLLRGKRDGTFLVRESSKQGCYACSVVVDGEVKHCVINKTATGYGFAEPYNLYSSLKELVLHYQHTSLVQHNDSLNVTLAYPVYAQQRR
# Sequence of PI3K β (P42338 whole entry): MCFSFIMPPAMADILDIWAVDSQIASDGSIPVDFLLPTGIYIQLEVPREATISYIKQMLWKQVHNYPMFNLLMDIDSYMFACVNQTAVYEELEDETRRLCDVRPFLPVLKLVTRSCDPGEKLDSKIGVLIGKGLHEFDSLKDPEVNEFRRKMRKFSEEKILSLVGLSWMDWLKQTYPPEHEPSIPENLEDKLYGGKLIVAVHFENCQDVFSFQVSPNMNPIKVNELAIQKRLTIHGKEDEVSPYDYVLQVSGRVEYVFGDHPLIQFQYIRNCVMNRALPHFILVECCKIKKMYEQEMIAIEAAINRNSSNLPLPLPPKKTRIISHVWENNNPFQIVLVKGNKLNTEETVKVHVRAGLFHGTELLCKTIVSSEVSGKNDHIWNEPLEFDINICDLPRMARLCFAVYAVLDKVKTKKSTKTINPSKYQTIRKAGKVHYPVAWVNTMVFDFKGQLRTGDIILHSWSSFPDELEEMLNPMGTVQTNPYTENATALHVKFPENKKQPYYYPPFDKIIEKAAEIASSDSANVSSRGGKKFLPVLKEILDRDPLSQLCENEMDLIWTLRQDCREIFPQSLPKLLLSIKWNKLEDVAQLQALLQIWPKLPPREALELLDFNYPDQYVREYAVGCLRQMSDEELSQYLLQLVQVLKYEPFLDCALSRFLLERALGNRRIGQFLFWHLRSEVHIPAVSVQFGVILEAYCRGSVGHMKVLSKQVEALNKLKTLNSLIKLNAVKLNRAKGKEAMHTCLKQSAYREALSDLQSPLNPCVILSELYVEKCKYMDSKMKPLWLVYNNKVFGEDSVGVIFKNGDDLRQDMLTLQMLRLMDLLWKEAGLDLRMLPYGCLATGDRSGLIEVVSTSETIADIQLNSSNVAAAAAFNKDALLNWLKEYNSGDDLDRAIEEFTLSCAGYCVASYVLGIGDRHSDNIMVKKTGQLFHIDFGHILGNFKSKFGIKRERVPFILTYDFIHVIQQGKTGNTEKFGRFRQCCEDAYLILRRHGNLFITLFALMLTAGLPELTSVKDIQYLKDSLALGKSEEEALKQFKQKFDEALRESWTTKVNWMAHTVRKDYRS
# T2 sequence (P42336 whole entry): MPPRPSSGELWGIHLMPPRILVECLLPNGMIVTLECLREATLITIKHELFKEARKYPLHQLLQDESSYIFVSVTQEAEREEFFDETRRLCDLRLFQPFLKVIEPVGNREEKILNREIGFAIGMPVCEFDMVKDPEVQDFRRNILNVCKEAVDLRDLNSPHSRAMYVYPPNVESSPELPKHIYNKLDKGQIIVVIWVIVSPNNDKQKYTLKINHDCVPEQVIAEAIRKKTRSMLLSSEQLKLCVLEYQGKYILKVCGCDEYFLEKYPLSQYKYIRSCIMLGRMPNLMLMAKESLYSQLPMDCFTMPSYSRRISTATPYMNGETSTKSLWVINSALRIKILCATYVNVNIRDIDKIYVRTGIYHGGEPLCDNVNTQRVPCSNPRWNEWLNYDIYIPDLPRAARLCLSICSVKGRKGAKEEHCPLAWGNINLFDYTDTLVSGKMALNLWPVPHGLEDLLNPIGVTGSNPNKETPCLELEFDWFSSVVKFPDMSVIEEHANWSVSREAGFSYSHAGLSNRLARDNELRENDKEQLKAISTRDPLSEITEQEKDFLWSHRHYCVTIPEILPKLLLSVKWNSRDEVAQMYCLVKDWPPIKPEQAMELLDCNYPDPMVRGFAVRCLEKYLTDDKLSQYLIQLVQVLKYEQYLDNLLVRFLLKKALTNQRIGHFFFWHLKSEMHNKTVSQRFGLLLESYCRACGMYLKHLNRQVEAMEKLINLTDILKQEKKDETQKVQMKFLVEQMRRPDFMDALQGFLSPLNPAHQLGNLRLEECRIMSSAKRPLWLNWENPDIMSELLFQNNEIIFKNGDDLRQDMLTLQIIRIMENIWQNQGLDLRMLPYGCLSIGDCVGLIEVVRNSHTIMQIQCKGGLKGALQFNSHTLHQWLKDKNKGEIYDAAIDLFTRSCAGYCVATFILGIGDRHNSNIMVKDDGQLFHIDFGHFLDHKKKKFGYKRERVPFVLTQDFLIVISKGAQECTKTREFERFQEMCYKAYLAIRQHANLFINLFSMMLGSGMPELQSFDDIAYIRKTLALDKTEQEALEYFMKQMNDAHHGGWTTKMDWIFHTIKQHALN
# T2 sequence (P27986 whole entry partner): as the sequence (P27986 whole entry partner) above
Structure (SMILES),IC50 [1] [µM],IC50 [2] [µM],IC50 [3] [µM],IC50 [4] [µM]
Cc1cccc2cc(Cn3nc(/C=C4/CCNC4=O)c4c(N)ncnc43)n(-c3ccccc3F)c(=O)c12 [Compound 172],< 10,> 10,> 10,> 10
Cc1ccccc1-n1c(Cn2nc(CCC(N)=O)c3c(N)ncnc32)cc2cccc(C)c2c1=O [Compound 175],< 1,< 10,> 10,> 10
C=Cc1nn(Cc2cc3cccc(C)c3c(=O)n2-c2ccccc2F)c2ncnc(N)c12 [Compound 179],< 1,< 10,> 10,> 10
COc1cc(F)cc(-c2nn(Cc3cc4cccc(C)c4c(=O)n3-c3ccccc3C)c3ncnc(N)c23)c1 [Compound 181],< 1,< 10,> 10,> 10
Cc1ccccc1-n1c(Cn2nc(-c3ccn[nH]3)c3c(N)ncnc32)cc2cccc(C)c2c1=O [Compound 182],< 1,< 0.1,> 10,> 10
Cc1cccc2cc(Cn3nc(-c4ccn[nH]4)c4c(N)ncnc43)n(-c3ccccc3F)c(=O)c12 [Compound 183],< 1,< 10,> 10,> 10
CCN(Cc1cc2cccc(C)c2c(=O)n1-c1ccccc1C)c1ncnc2[nH]cnc12 [Compound 186],< 10,< 10,> 10,> 10
Nc1ncnc2c1c(-c1cn[nH]c1)nn2Cc1cc2cccc(F)c2c(=O)n1-c1ccccc1F [Compound 189],< 1,< 10,> 10,> 10
Cc1ccccc1-n1c(Cn2nc(/C=C/C(=O)N3CCOCC3)c3c(N)ncnc32)cc2cccc(C)c2c1=O [Compound 192],< 1,> 10,> 10,> 10
Cc1ccccc1-n1c(Cn2nc(CCC(=O)N3CCOCC3)c3c(N)ncnc32)cc2cccc(C)c2c1=O [Compound 193],< 10,> 10,> 10,> 10
Cc1ccccc1-n1c(Cn2nc(CN3CCOCC3)c3c(N)ncnc32)cc2cccc(C)c2c1=O [Compound 194],< 10,> 10,> 10,> 10
Cc1cccc2cc([C@@H](C)Nc3ncnc4[nH]cnc34)n(C3CCC3)c(=O)c12 [Compound 197],> 10,< 10,> 10,> 10
Cc1cccc2cc(C(C)Nc3ncnc4[nH]cnc34)n(C(C)C)c(=O)c12 (centres unmarked) [Compound 209],< 0.1,< 1,< 10,< 10
Cc1cccc2cc(C(C)Nc3ncnc4[nH]cnc34)n(-c3ccccc3)c(=O)c12 (centres unmarked) [Compound 210],< 0.1,< 0.1,< 10,< 10
CCC(Nc1ncnc2[nH]cnc12)c1cc2cccc(C)c2c(=O)n1-c1ccccc1 (centres unmarked) [Compound 211],< 0.1,< 0.1,< 10,> 10
CCC(Nc1ncnc2[nH]cnc12)c1cc2cccc(C)c2c(=O)n1C1CCC1 (centres unmarked) [Compound 212],< 0.1,< 1,< 10,> 10
Cc1cccc2cc(C(C)Nc3ncnc4[nH]cnc34)n(-c3ccc(F)cc3)c(=O)c12 (centres unmarked) [Compound 213],< 0.1,< 0.1,< 1,< 10
Cc1cccc2cc(Cn3nc(-c4cn[nH]c4)c4c(N)ncnc43)n(-c3ccccc3C(F)(F)F)c(=O)c12 [Compound 214],< 0.1,< 1,< 10,> 10
Cc1cccc2cc(C(C)Nc3ncnc4[nH]cnc34)n(C3CCC3)c(=O)c12 (centres unmarked) [Compound 215],< 0.1,< 0.1,< 10,> 10
Cc1cccc2cc(C(C)Nc3ncnc4[nH]cnc34)n(-c3c(F)cccc3F)c(=O)c12 (centres unmarked) [Compound 216],< 0.1,< 1,> 10,> 10
Cc1cccc(C)c1-n1c(CNc2ncnc3[nH]cnc23)cc2cccc(C)c2c1=O [Compound 218],< 0.1,< 1,> 10,> 10
CCC(Nc1ncnc2[nH]cnc12)c1cc2cccc(C)c2c(=O)n1C(C)C (centres unmarked) [Compound 219],< 0.1,< 10,< 10,> 10
CC(Nc1ncnc2[nH]cnc12)c1cc2ccccc2c(=O)n1-c1ccccc1 (centres unmarked) [Compound 220],< 0.1,< 1,< 10,> 10
CCC(Nc1ncnc2[nH]cnc12)c1cc2ccccc2c(=O)n1-c1ccccc1 (centres unmarked) [Compound 221],< 0.1,< 10,> 10,> 10
Cc1cccc2cc(C(C)Nc3ncnc4[nH]cnc34)n(-c3cc(F)cc(F)c3)c(=O)c12 (centres unmarked) [Compound 222],< 0.1,< 1,> 10,> 10
CCC(Nc1ncnc2[nH]cnc12)c1cc2cccc(C)c2c(=O)n1-c1ccc(F)cc1 (centres unmarked) [Compound 223],< 0.1,< 0.1,< 10,< 10
CCC(Nc1ncnc2[nH]cnc12)c1cc2cccc(C)c2c(=O)n1-c1cc(F)cc(F)c1 (centres unmarked) [Compound 224],< 0.1,< 10,> 10,> 10
Cc1cccc2cc(C(C)Nc3ncnc4[nH]cnc34)n(C3CCN(C)CC3)c(=O)c12 (centres unmarked) [Compound 227],< 0.1,> 10,< 1,> 10
CCC(Nc1ncnc2[nH]cnc12)c1cc2cccc(C)c2c(=O)n1C1CCN(C)CC1 (centres unmarked) [Compound 228],< 1,> 10,< 10,> 10
Cc1cccc2cc([C@H](C)Nc3ncnc4ccccc34)n(-c3ccccc3)c(=O)c12 [Compound 238],< 0.1,< 1,> 10,> 10

# Further lines, results first:
IC50 [1] [µM],IC50 [2] [µM],IC50 [3] [µM],IC50 [4] [µM],Structure (SMILES)
< 0.1,< 0.1,< 10,< 10,Cc1ccccc1-n1c(Cn2nc(/C=C3/SC(=O)NC3=O)c3c(N)ncnc32)cc2cccc(C)c2c1=O [Compound 173]
< 0.1,< 0.1,< 10,> 10,Cc1ccccc1-n1c(Cn2nc(/C=C/C(N)=O)c3c(N)ncnc32)cc2cccc(C)c2c1=O [Compound 174]
< 0.1,< 0.1,< 1,< 0.1,CCn1c(Cn2nc(-c3ccc4nc(NC(C)=O)sc4c3)c3c(N)ncnc32)cc2cccc(C)c2c1=O [Compound 176]
< 0.1,< 0.1,< 10,< 1,CC(=O)Nc1nc2ccc(-c3nn(Cc4cc5cccc(C)c5c(=O)n4-c4ccccc4)c4ncnc(N)c34)cc2s1 [Compound 177]
< 0.1,< 1,> 10,> 10,C=Cc1nn(Cc2cc3cccc(C)c3c(=O)n2-c2ccccc2C)c2ncnc(N)c12 [Compound 180]
< 0.1,< 0.1,< 1,< 10,Cc1cccc2cc(Cn3nc(-c4cn[nH]c4)c4c(N)ncnc43)n(-c3ccccc3C(C)C)c(=O)c12 [Compound 185]
< 0.1,< 1,> 10,> 10,Cc1cccc2cc(Cn3nc(-c4cn[nH]c4)c4c(N)ncnc43)n(-c3ccccc3Cl)c(=O)c12 [Compound 188]
< 0.1,< 0.1,< 10,< 10,CCc1ccccc1-n1c(Cn2nc(-c3cn[nH]c3)c3c(N)ncnc32)cc2cccc(C)c2c1=O [Compound 190]
< 0.1,< 0.1,< 10,> 10,Cc1ccccc1-n1c(C(C)Nc2ncnc3[nH]cnc23)cc2cccc(C)c2c1=O (centres unmarked) [Compound 191]
< 0.1,< 0.1,< 10,< 10,Cc1cccc2cc([C@H](C)Nc3ncnc4[nH]cnc34)n(C3CCC3)c(=O)c12 [Compound 198]
< 0.1,< 0.1,< 1,< 0.1,Cc1cccc2cc(Cn3nc(-c4ccc5oc(N)nc5c4)c4c(N)ncnc43)n(C3CC3)c(=O)c12 [Compound 201]
< 0.1,< 1,< 10,> 10,CCC(Nc1ncnc2[nH]cnc12)c1cc2cccc(C)c2c(=O)n1-c1ccccc1C (centres unmarked) [Compound 202]
< 0.1,< 0.1,< 1,< 10,Cc1cccc2cc(C(C)Nc3ncnc4[nH]cnc34)n(C3CC3)c(=O)c12 (centres unmarked) [Compound 204]
< 0.1,< 0.1,< 10,< 10,Cc1cccc2cc(Cn3nc(-c4ccc5oc(N)nc5c4)c4c(N)ncnc43)n(-c3ccccc3)c(=O)c12 [Compound 205]
< 0.1,< 1,< 10,< 10,Cc1cccc2cc(Cn3nc(-c4cn[nH]c4)c4c(N)ncnc43)n(-c3ccccc3)c(=O)c12 [Compound 206]
< 0.1,< 0.1,< 10,< 10,Cc1ccccc1-n1c(Cn2nc(-c3nn[nH]n3)c3c(N)ncnc32)cc2cccc(C)c2c1=O [Compound 207]
< 0.1,< 0.1,< 1,< 1,Cc1cccc2cc(Cn3nc(-c4ccc5oc(N)nc5c4)c4c(N)ncnc43)n(C3CCC3)c(=O)c12 [Compound 208]
